Measurements published in patent publication US5871779A, “Treatment of arthropathies with vanadate compounds or analogues thereof” (Mount Sinai Hospital Corporation, priority 1996, dated 1999).

What was measured:
[1] = test system: fos; experiment: fos / c-fos mRNA expression in chondrocytes (Northern blot); type: cell-based, bovine; settings: stimulus alone; H2 O2 30, 60 and 90 minutes; IL-1, PMA or AA (3 μM) 1 hour
Method: The cytokine interleukin 1 (IL 1) has been used to identify the intermediate second messengers which regulate the expression of fos and jun.
In order to elucidate this possibility, the effect of DPI on fos and jun mRNA levels induced by IL 1 was investigated. RNA from chondrocytes treated with IL 1 in the presence and absence of DPI were analyzed by Northern blot analysis using either fos or collagenase cDNA probes.
Since superoxides are rapidly converted to hydrogen peroxide in the cell by superoxide dismutase, whether hydrogen peroxide could mimic the effect of IL 1 in the induction of fos expression was investigated. RNA was extracted from chondrocytes (Kandel et al. supra) treated with H2 O2 for 30, 60 and 90 minutes and examined by Northern blot analysis using a fos cDNA probe.
Bovine articular chondrocytes were isolated and plated as previously described (Kandel R. A. et al. Biochim. Biophys. Acta. 1053, 130-134, 1990). […] The amount of ^3 H-AA liberated into the supernatant was determined. To measure PGE2 production, chondrocytes were incubated for 6 hours in Ham's F12 medium, either alone or with IL 1 or PMA. […] In order to examine the expression of c-fos and c-jun, chondrocytes were incubated for 1 hour in the presence of IL-1, PMA or AA (3 μM). Chondrocytes were washed in PBS and the total RNA extracted as previously described (Cruz. et al, 1991, Biochem. J. 277, 327-330). RNA samples were run on formaldehyde agarose gels and transferred to nylon membrane for northern analysis using cDNA probes for c-fos and c-jun.
The RNA was extracted and examined by Northern blot analysis using cDNA probes for c-fos and collagenase.

[2] = test system: cells; experiment: cell toxicity of orthovanadate and H2 O2; type: cell-based; settings: 1 mM H2 O2, 24 hours
Method: Orthovanadate was thought in view of the investigations described in Examples 1-3, to react with H2 O2 to form hydroxyl radicals which are extremely toxic. If the orthovanadate induced formation of hydroxyl radicals is responsible for cell toxicity, then adding exogenous H2 O2 should enhance the effects of orthovanadate. Accordingly, cells were incubated in media alone or containing 1 mM H2 O2 or 10 μM orthovanadate or both for 24 hours. The cells were harvested and cell viability determined.

[3] = test system: MDAY-D2 tumor; experiment: MDAY-D2 tumor growth in vivo, orthovanadate, vanadyl sulphate, vanadyl hydroperoxide (Example 6B); parameters: species or system mice
Description: (§1) In order to examine the ability of vanadyl compounds to reduce tumor formation, growth and metastases, a specific animal model which allows investigation of all of these processes in the same animal was chosen. This model involves the injection of a metastatic haematopoietic cell line, MDAY-D2, into mice subcutaneously. These cells form a tumor at the site of injection and its size can be easily determined. In addition, these cells metastasize to the liver and metastases can be detected histologically after day 17 to 19. This model provides a very sensitive and reproducible approach to investigate the effect of vanadyl compounds on tumor growth and metastases.
In a separate experiment using the same animal model, the effect of orthovanadate, vanadyl sulphate and vanadyl hydroperoxide administration on tumor growth in vivo was examined. On Day 1, 20 mice were injected with 2×10^5 MDAY-D2 cell subcutaneously. The mice were divided into four groups of five mice. At day 5, the animals were injected subcutaneously with 50 μl of water alone or containing 10 mg/ml of orthovanadate, 10 mg/ml of vanadyl sulphate, or 10 mg/ml of vanadyl hydroperoxide. This treatment was continued daily for 16 days. At day 21, the mice were sacrificed and the tumors dissected and weighed.

[4] = test system: A431; experiment: MTT cytotoxicity assay, A431; type: cell-based, human; settings: A431, 72 hours
Method: (§2) The relative cytotoxicity of various compounds on tumor cell lines was investigated as follows. Cytotoxicity was measured by the MTT microculture tetrazolium colorimetric assay for all cell lines. The relative cytotoxicity of Na3 VO4 and VOSO4 was investigated using the following tumor cell lines: P388(WT) murine leukemia, P388 (ADR) murine leukemia, Lewis murine lung, MCF7 (WT) human breast, […] human lung, K562 human erythroleukemia, A431 human epidermal, LS180 human colon and SK-OV-3 human ovarian. The relative cytotoxicity of doxorubicin, Na3 VO4 and VOSO4 was investigated using the following tumor cell lines: P388(WT) murine leukemia, P388 (ADR) murine leukemia, MCF7(WT) human breast and MCF7 (ADR) human breast. The relative cytotoxicity of BMOV, BEOV and naglivan was investigated using the following tumor cell lines: P388(WT) murine leukemia, P388 (ADR) murine leukemia, Lewis murine lung, H460 human lung, K562 human erythroleukemia, and SK-OV-3 human ovarian.
(§3) The cells were plated (number of cells/well was different from cell line to cell depending on the dividing rate) in a 96-well microculture plate 24 hours prior to the delivery of the vanadium compounds. Serial concentrations of solutions of the test compounds (0.05-100 μM) were delivered to the corresponding wells. […] The absorbance of each well was read with a Titertek Multiskan (310C) spectrophotometer at 570 nm. […]

[5] = test system: P388 (ADR); experiment: MTT cytotoxicity assay, P388 (ADR); type: cell-based, murine; settings: P388 (ADR), 72 hours; read-out: IC50 Value
Method: as §2
(§4) The cells were plated (number of cells/well was different from cell line to cell depending on the dividing rate) in a 96-well microculture plate 24 hours prior to the delivery of the vanadium compounds. Serial concentrations of solutions of the test compounds (0.05-100 μM) were delivered to the corresponding wells. A blank column (without cells) and a control column (with cells without vanadium) were left. The cells were incubated for 72 hours continuously. An MTT solution was added to each well after this incubation period and the cells were incubated for 4 more hours for the completion of the dyeing process. The medium was removed find DMSO was added to each well. The absorbance of each well was read with a Titertek Multiskan (310C) spectrophotometer at 570 nm. The percentage of the absorbance of each vanadium concentration relative to the control calculated and the value of the 50% growth inhibition concentration (IC50) was obtained from the % control versus concentration plot. Each assay was repeated three times and the reported IC50 values were the mean of these three runs.

[6] = test system: H460; experiment: MTT cytotoxicity assay, H460; type: cell-based, human; settings: H460, 72 hours
Method: as §2, §4

[7] = test system: MDAY-D2 cells; experiment: viability of MDAY-D2 cells; type: cell-based, mouse; settings: 0-50 μM, 48 hours, three forms compared
Method: Fos and jun activity are also required for cellular proliferation in many tumor cell lines. Accordingly, the effect of orthovanadate on adherent cells and cell suspensions were examined. MDAY-D2 (a mouse lymphoid cell line grown in suspension) and HTB14 cells (an adherent human primary astrocytoma cell line) were incubated in media containing 0-50 μM orthovanadate for 48 hours. The cells were harvested and the number of viable cells determined.
Three different forms of vanadyl compounds were examined for their effect on viability of cancer cell lines. MDAY-D2 cells were incubated in media containing 0-50 μM orthovanadate, vanadyl sulphate, or vanadyl hydroperoxide for 48 hours. The cells were harvested and the number of viable cells determined. […] Although there were slight differences in sensitivity, the overall cell death was similar.

[8] = test system: P388 (WT); experiment: MTT cytotoxicity assay, P388 (WT); type: cell-based, murine; settings: P388 (WT), 72 hours; read-out: IC50 Value
Method: as §2, §4

[9] = test system: SK-OV-3; experiment: MTT cytotoxicity assay, SK-OV-3; type: cell-based, human; settings: SK-OV-3, 72 hours
Method: as §2, §4

[10] = test system: MCF7 (ADR); experiment: MTT cytotoxicity assay, MCF7 (ADR); type: cell-based, human; settings: MCF7 (ADR), 72 hours; read-out: IC50 Value
Method: as §2, §4

[11] = test system: carcinogenesis; settings: dietary; cited from earlier work
[12] = test system: MCF7 (WT); experiment: MTT cytotoxicity assay, MCF7 (WT); type: cell-based, human; settings: MCF7 (WT), 72 hours; read-out: IC50 Value
Method: as §2, §4

[13] = test system: Lewis lung; experiment: MTT cytotoxicity assay, Lewis lung; type: cell-based, murine; settings: 72 hours
Method: as §2, §4

[14] = test system: LS180; experiment: MTT cytotoxicity assay, LS180; type: cell-based, human; settings: LS180, 72 hours
Method: as §2, §3

[15] = test system: synoviocytes; experiment: synoviocyte proliferation, dye exclusion (Example 24); type: cell-based
Method: The effect of vanadium compounds on synoviocyte proliferation was investigated as follows. Synoviocytes were plated on six well plates and treated with orthovanadate or vanadyl sulphate and incubated for 24 hours. The cells were removed and the number of viable cells determined by the dye exclusion method.

[16] = test system: K562; experiment: MTT cytotoxicity assay, K562; type: cell-based, human; settings: K562, 72 hours
Method: as §2
as §4, with “Serial concentrations of solutions of the test compounds (0.05-100 μM) were delivered to the corresponding wells.” left out

[17] = test system: metastases of MDAY-D2 cells; experiment: liver metastases of MDAY-D2 cells (histology); type: in vivo, mice; settings: 500 μg/day; preliminary results
Description: as §1
The metastatic liver was obtained from an animal 24 days following the administration MDAY-D2 cells. The nodules are quite numerous and large.
Livers were removed from animals treated as described above and prepared for histological examination. FIG. 16 compares liver sections from untreated (C), orthovanadate (VO)(500 μg/day) and vanadyl sulphate (VS)(500 μg/day) treated animals. Nodules are identified with an arrow.

| Compound | stimulation of fos / c-fos expression [1] | effect on cell toxicity, H2 O2 alone [2] | animal deaths ([3]; groups of five, 10 mg/ml, 50 μl daily s.c.) | efficacy in reducing tumor growth ([3]; mouse, in vivo) | IC50 [4] [µM] | IC50 [5] [µM] | IC50 [6] [µM] | killing of MDAY-D2 cells [7] | IC50 [8] [µM] | IC50 [9] [µM] | IC50 [10] [µM] | chemically induced mammary carcinogenesis in rats [11] | IC50 [12] [µM] | IC50 [13] [µM] | IC50 [14] [µM] | cytotoxicity to synoviocytes [15] | Number of cells ([15]; 25 μM, 24 hours (control 2.6)) | synoviocyte proliferation ([15]; 24 hours) | IC50 [16] [µM] | metastases in liver [17] |
| --- | --- | --- | --- | --- | --- | --- | --- | --- | --- | --- | --- | --- | --- | --- | --- | --- | --- | --- | --- | --- |
| OO [H2 O2, hydrogen peroxide] | stimulates | small effect | – | – | – | – | – | – | – | – | – | – | – | – | – | – | – | – | – | – |
| O=S(=O)([O-])[O-].[O]=[V+2] [vanadyl sulphate] | – | – | One animal died | less effective | 29.1 | 29.8 | 9.3 | equally effective | 16.1 | 1.9 | 31.3 | inhibit | 10.5 | 27.3 | 31.9 | cytotoxic to the cells | 0.2 10^-5 | inhibited synoviocyte proliferation | > 100 | did not have detectable levels of metastases |
